In data set [1] the test system is endothelial glycocalyx. Also on record: species or system human. Conditions: in vivo.
Data set [2] concerns endothelial glycocalyx. The settings on record: in vivo; cited from earlier work.
The test system of data set [3] is endotoxin-induced inflammatory reactions. Kind of data set: Clinical symptoms and vital signs after intravenous endotoxin challenge in healthy male volunteers. The data set is classed as in vivo, human. The protocol:
(§1) Twentyone healthy Caucasian male volunteers were studied. […] Participants had no history of cardiovascular disease. […] All experiments were performed after an overnight fast.

Data set [4] has as its system endothelial glycocalyx. The data set can be described thus: Estimation of systemic glycocalyx volume (Dextran 40 distribution volume minus circulating plasma volume) after endotoxin challenge. The data set is classed as in vivo, human. Also on record: haematocrit values: unit not given here. Conditions: 4 hours after endotoxin infusion. The method, then:
as §1
Systemic glycocalyx volume was estimated as previously published by subtracting circulating plasma volume from the intravascular distribution volume of the glycocalyx permeable tracer Dextran 40 (Nieuwdorp M et al. 2006. Diabetes 55: 480-6; Suffredini et al. 1999, supra). Circulating plasma volume was calculated with a previously published method (Orth et al. 1998. Anesth Analg 87: 1234-8). The intravascular distribution volume of labelled autologous erythrocytes was used to quantify the circulating blood volume. Blood was drawn and centrifuged at 1,330 rpm for 5 minutes. Subsequently, sodium fluorescein (fluorescein-di-Na 25%, 250 mg/ml, AZUA Pharmacy, Amsterdam, the Netherlands) was added to the erythrocyte fraction for 5 minutes. After careful washing, labelled erythrocytes were resuspended in saline to the initial volume (60 ml) and re-infused. Subsequently, blood was drawn at 4, 5, 6, and 7 minutes after infusion. The fraction of labelled erythrocytes in the total erythrocyte pool was used to estimate the circulating erythrocyte volume (VERY). Pre-injection unlabeled erythrocytes served as negative control. The fraction of labelled erythrocytes in the blood was measured using a FACScan analyzer (FACS Calibur®, Becton Dickinson, Mountain View, USA). At least 100,000 cells were counted. Data were analyzed by Cellquest (Becton Dickinson, San Jose, Calif., USA). Haematocrit (Ht) was measured after centrifugation of heparinized blood in a Hettich-Haematokrit centrifuge at 10,000 rpm during 5 minutes (Hettich, Tuttlingen, Germany). Circulating plasma volume was calculated from VERY and large vessel Ht by the following formula: circulating plasma volume=([1−Ht]×VERY)/Ht.
Dextran 40 (Rheomacrodex; NPBI International, Emmercompascuum, the Netherlands) was used as a probe to estimate total intravascular volume, which includes the glycocalyx compartment. A bolus of 10 ml Dextran 1 (Promiten; NPBI International, Emmer-compascuum, the Netherlands) was injected to attenuate the risk of anaphylactic reactions prior to Dextran 40 infusion. 100 ml Dextran 40 was injected intravenously, followed by repeated blood sampling at 5, 7, 10, 15, 20, and 30 minutes. Dextran 40 concentration was calculated by measuring the increase in glucose concentration in the post infusion samples after hydrolyzation of Dextran 40 glucose polymers (Van Kreel et al. 1998. Clin Chim Acta 275: 71-80). Glucose concentration per time point was assessed in duplicate using the hexokinase method (Gluco-quant, Hitachi 917; Hitachi). To determine the initial intravascular distribution volume of Dextran 40, the concentration of Dextran 40 at the time of injection was estimated by exponential fitting of the measured Dextran 40 concentrations. Exponential time constants (τ [min]) were used to determine Dextran 40 systemic clearance rates (τ^−1 min^−1).

Data set [5] concerns sublingual microcirculation. The data set can be described thus: Microvascular glycocalyx / capillary density by OPS imaging of the sublingual microcirculation after endotoxin challenge. The data set is classed as in vivo, human. Conditions: upon endotoxin challenge; from 59±7 at baseline; p<0.01. The method, then: as §1
Thickness of endothelial glycocalyx in individual capillary blood vessels was measured by orthogonal polarization spectral (OPS) imaging of the sublingual microcirculation (Cytometrics, Philadelphia, Pa., USA) as previously published (Nieuwdorp et al. 2006, supra; Nieuwdorp et al. 2006. Diabetes 55: 1127-32). In short, the width of flowing erythrocytes was measured in 5 individual capillaries before and immediately after capillary leukocyte passage. In healthy capillaries, the glycocalyx limits capillary blood filling by separating erythrocytes from the luminal endothelial surface, which is known as the red cell exclusion zone. […] Images sized 728×576 pixels were recorded were collected with a 5× objective providing a 325× magnification at a frame rate of 25/second. […] The anatomical capillary diameter and the width of the flowing erythrocyte column were measured using digital calipers prior to and after spontaneous capillary leukocyte passage. Per participant, glycocalyx dimension was determined in at least 5 capillaries. […] In addition as indication of capillary density, the number of capillaries per field was counted.

The subject of data set [6] is glycocalyx shedding. The data set can be described thus: Plasma glycocalyx components (hyaluronan, heparan sulphate) and hyaluronidase activity after endotoxin challenge. The data set is classed as in vivo, human. The method, then:
as §1

The subject of data set [7] is TNFα-induced inflammatory responses. Kind of data set: Plasma inflammatory markers (IL-6, CRP) and circulating leukocytes after endotoxin challenge. It is filed as in vivo, human. The method, then: as §1
For data set [8], the system named is monocytes. Kind of data set: Leukocyte differentiation and monocyte flow cytometry after endotoxin challenge. It is filed as in vivo, human. The method, then:
as §1
Whole blood samples were collected in pyrogen-free lithium-heparin tubes and then incubated for 10 min with 9 volumes ice-cold erythrocyte lysis buffer and centrifuged for 10 min at 4° C. Remaining cells were washed twice with ice-cold PBS. For flow cytometric analysis 0.5×10^6 cells were incubated in FACS buffer mixed with antibody. All reagents were titrated to obtain optimal results as recommended by the manufacturers. Cell surface staining was performed with Fluorescein Isothiocyanate (FITC) labelled mouse anti-human CD14 (IgG2a), anti-human Allophycocyanin (APC) labelled CD18 (IgG1) and Phycoerythrin (PE) labelled anti-human CD11b (IgG1) and CD62L (IgG1) (R&D Systems, San Jose, Calif., USA). Appropriate isotype control antibodies were used to correct for non-specific antibody binding. After staining, the cells were washed, fixed in 4% paraformaldehyde, and analyzed by flow cytometry using a FACS Calibur flow cytometer. Data were analyzed with CellQuest software (Becton Dickinson, Franklin Lakes, N.J., USA).

Data set [9] deals with thrombin generation and fibrinolysis. The data set can be described thus: Coagulation and fibrinolysis markers (prothrombin fragment F1+2, D-dimer) after endotoxin challenge. Conditions: p<0.05. The data set is classed as in vivo, human. The method, then:
as §1

On to `O=[N+]([O-])OCC(CO[N+](=O)[O-])O[N+](=O)[O-]` [nitroglycerine], for which the “status of the glycocalyx (RBCW, glycocalyx width; FIGS. 5A and 5B)” value in [1] was “a clear distinction between the status of the glycocalyx in treated and untreated subjects”. The “effect on the glycocalyx as known” value in data set [2] was “known to cause damage to the glycocalyx”.
On to Etanercept, for which, in data set [3] (4 hours after endotoxin infusion, from 36.6±0.5 at baseline, ns), the body temperature amounted to 37.3±0.5 °C. Moreover, the heart rate in data set [3] (4 hours after endotoxin infusion, from 62±4 at baseline, ns) worked out at 69±3. The diastolic blood pressure in [3] (4 hours after endotoxin infusion, from 69±6 at baseline, ns) stood at 67±6 mm Hg. In data set [3] (4 hours after endotoxin infusion, from 125±7 at baseline, ns), this compound yielded a systolic blood pressure of 123±10 mmHg. Moreover, in [3] (after endotoxin infusion, saline versus Etanercept group, data not shown), the “clinical symptoms of endotoxemia (chills, headache, myalgia, nausea)” value was “more frequently and more intensive in the saline group compared to the Etanercept group”. Moreover, in [4] (baseline 1.7±0.5, p<0.01), the systemic glycocalyx volume is 1.1 ± 0.2 L. Also, in data set [4] (from 0.009±0.002 at baseline, ns), the “systemic Dextran 40 clearance rate” value is 0.009 ± 0.001 min⁻¹. In addition, the haematocrit values in data set [4] (from 0.43±0.02 at baseline, ns) is on record as 0.42±0.02. Besides, the circulating plasma volume in data set [4] (from 2.9±0.5 at baseline, ns) is 2.8 ± 0.6 L. Also, the “Dextran 40 distribution volume” value in data set [4] (from 4.6±0.6 at baseline, p<0.05) was 3.9 ± 0.5 L. Besides, in data set [4] (saline group versus Etanercept group), the “rate of Dextran 40 plasma clearance (FIG. 1B)” value is “increased in the saline group as compared with Etanercept group”. The “capillary density (number of capillaries per field)” value in data set [5] is 43±15. In data set [6] (4 hours after endotoxin infusion, ns), the “plasma hyaluronidase activity, change compared to baseline” value is −8±14%. In data set [6] (24 hours after endotoxin infusion, p<0.01 versus saline group), the “plasma heparan sulphate levels” value came to 7.4 ± 1.5 µg/mL. Moreover, the “heparan sulphate plasma levels” value in data set [6] (during the 4 hours after endotoxin challenge, from 5.4±1.3, ns) was 5.1 ± 1.0 µg/mL. The compound also had a plasma hyaluronan levels in data set [6] (within first hour after endotoxin infusion, from 58±13, p<0.05) of 46 ± 10 ng/mL. In [7] (4 hours after endotoxin, both treatment groups), the “number of circulating leukocytes compared to baseline” value is on record as “doubled”. Moreover, the “plasma CRP” value in data set [7] (after endotoxin challenge, from 0.6±0.4 at baseline, p<0.01) was found to be 16.0 ± 3.4 mg/L. Besides, the plasma IL-6 in data set [7] (after endotoxin challenge, from 4.6±3.1 at baseline, p<0.05) was 127 ± 98 pg/mL. Besides, in data set [8] (4 hours after endotoxin infusion, p<0.05 compared to baseline), the “reduction of monocyte count” value was determined as 51±32%. In data set [8] (4 hours after endotoxin, p<0.05 versus saline group), the “change in percentage of CD62L+ (L-selectin) expressing monocytes” value was “+66±42%”. In addition, in [8] (after endotoxin infusion, ns between groups), the “CD14+ monocyte counts” value was 26±13%. Further, the “CD11b+/CD18+ (Mac-1 complex) monocyte count, median” value in data set [8] (after endotoxin infusion, p<0.01 versus saline) came out at 0.65±0.1. Further, the D-dimer in data set [9] (from 0.2±0.1 at baseline) was found to be 0.3 ± 0.1 mg/L. For the same compound, in data set [9] (from 0.3±0.1 at baseline), the “prothrombin activation fragment F1+2” value worked out at 2.1 ± 0.9 nmol/L.
